Experimental data as given in patent publication US20250064941A1, “SIGLEC LIGANDS, CONJUGATES, AND METHODS OF USE THEREOF” (Osprey Biopharmaceuticals, Inc., priority 2023, published 2025).
pKd: −log10 of the molar value.

Columns and labels:
[1] = biological target: T1, mouse Siglec-2-Fc-Avi (CD22) (Mus musculus, UniProt P35329); test: SPR binding affinity to mouse CD22; conditions: steady-state analysis
T1 construct: made in house
T1 sequence (P35329 22-708 limits assumed): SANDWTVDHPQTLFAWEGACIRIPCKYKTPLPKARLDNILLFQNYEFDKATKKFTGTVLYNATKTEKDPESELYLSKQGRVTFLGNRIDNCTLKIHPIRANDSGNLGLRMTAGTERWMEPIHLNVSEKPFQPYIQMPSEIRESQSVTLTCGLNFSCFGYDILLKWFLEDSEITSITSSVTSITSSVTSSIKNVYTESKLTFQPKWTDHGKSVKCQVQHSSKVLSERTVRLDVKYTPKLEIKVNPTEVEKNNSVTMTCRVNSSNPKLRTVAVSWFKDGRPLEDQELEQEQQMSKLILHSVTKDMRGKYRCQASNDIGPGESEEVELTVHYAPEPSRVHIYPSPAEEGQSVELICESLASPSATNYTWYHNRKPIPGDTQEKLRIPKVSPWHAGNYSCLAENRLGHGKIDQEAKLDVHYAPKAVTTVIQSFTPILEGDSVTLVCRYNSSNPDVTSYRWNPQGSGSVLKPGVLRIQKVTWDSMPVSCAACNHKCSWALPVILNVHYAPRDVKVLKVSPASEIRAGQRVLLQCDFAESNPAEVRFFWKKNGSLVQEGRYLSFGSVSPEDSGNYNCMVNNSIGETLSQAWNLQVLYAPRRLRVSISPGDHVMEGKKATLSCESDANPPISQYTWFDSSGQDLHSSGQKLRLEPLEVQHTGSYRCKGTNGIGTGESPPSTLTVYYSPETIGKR
Outline: (§1)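 Biotinylated CD22 desialylated with SialoExo (4 h, 37° C) before capture on streptavidin chip. Running buffer 10 mM HEPES, 150 mM NaCl, 0.05% Tween-20, pH 7.5, 1% DMSO, with DMSO solvent correction; 120 s dissociation. Compound affinities from steady-state analysis.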

[2] = biological target: T2, human Siglec-2/CD22 protein (Homo sapiens, UniProt P20273); test: SPR binding affinity to human CD22; conditions: steady-state analysis
T2 construct: purchased Acro Biosystems SI2-H82E3
T2 sequence (P20273 20-847): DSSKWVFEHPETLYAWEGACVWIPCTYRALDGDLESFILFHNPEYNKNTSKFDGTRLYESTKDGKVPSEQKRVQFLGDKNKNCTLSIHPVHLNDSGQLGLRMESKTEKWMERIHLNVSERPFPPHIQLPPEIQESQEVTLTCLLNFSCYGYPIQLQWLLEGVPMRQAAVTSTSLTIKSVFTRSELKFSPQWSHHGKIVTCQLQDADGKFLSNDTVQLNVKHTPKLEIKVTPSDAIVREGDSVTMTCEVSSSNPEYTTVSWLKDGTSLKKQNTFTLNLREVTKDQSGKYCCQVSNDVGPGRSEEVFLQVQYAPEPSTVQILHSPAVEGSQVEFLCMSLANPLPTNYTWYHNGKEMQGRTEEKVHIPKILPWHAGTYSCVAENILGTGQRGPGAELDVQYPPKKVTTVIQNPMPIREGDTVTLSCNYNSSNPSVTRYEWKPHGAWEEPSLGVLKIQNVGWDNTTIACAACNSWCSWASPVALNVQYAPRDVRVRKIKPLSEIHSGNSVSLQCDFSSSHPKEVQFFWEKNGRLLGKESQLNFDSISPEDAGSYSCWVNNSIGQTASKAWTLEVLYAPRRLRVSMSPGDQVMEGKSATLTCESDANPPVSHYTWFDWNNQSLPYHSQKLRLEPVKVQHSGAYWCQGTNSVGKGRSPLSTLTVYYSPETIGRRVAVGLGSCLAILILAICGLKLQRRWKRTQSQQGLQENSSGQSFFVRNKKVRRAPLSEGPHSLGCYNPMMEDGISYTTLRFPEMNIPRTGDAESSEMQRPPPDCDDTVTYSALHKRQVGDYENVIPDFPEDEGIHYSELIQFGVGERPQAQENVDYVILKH
Outline: as §1

cynomolgus Siglec-2/CD22 = cynomolgus Siglec-2/CD22 (Macaca fascicularis, UniProt A0A2K5WCZ6); test: biochemical; format: binding; conditions: SPR, steady-state analysis; read-out: Affinity cyno CD22
cynomolgus Siglec-2/CD22, sequence (A0A2K5WCZ6 entry or part of it): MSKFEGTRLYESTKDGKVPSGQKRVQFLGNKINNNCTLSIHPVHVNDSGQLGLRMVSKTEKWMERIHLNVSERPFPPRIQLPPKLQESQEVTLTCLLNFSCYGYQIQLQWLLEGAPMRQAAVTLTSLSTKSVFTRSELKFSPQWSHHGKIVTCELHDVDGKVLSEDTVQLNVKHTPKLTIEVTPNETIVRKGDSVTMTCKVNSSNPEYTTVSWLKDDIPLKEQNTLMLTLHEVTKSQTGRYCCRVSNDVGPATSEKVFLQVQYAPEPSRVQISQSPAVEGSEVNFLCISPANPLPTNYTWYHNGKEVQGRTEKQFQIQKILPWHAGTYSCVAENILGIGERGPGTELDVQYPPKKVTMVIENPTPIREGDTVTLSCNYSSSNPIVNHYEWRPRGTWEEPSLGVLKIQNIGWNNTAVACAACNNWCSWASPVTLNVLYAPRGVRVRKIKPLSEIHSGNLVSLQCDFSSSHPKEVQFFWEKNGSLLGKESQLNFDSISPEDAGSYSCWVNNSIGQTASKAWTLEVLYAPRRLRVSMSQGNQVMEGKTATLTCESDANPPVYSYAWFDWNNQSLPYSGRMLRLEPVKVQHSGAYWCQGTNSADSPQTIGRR
Outline: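 SPR with desialylated (SialoExo, 4 h, 37° C.) cynomolgus CD22 amine-coupled to a CM5 chip. Running buffer 10 mM HEPES, 150 mM NaCl, 0.05% Tween-20, pH 7.5, 1% DMSO, with solvent correction; 120 s dissociation. Affinities from steady-state analysis.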

Row | pKd [1] | pKd [2] | pKd (cynomolgus Siglec-2/CD22) | SMILES
1 | 5.00 to 6.00 | > 6.00 | > 6.00 | C#CCOCCCCCCO[C@]1(C(=O)O)C[C@H](O)[C@@H](NC(=O)CO)[C@H]([C@H](O)[C@H](O)CNC(=O)Cc2ccc(Cl)cc2)O1 [Compound 113, (2R,4S,5R,6R)-6-((1R,2R)-3-(2-(4-chlorophenyl)acetamido)-1,2-dihydroxypropyl)-4-hydroxy-5-(2-hydroxyacetamido)-2-((6-(prop-2-yn-1-yloxy)hexyl)oxy)tetrahydro-2H-pyran-2-carboxylic acid]
2 | 5.00 to 6.00 | 5.00 to 6.00 | 5.00 to 6.00 | C#CCCOc1ccc(CO[C@]2(C(=O)O)C[C@H](O)[C@@H](NC(=O)CO)[C@H]([C@H](O)[C@H](O)CNC(=O)Cc3ccccc3NC(C)=O)O2)cc1 [Compound 163, (2R,4S,5R,6R)-6-((1R,2R)-3-(2-(2-acetamidophenyl)acetamido)-1,2-dihydroxypropyl)-2-((4-(but-3-yn-1-yloxy)benzyl)oxy)-4-hydroxy-5-(2-hydroxyacetamido)tetrahydro-2H-pyran-2-carboxylic acid]
3 | 5.00 to 6.00 | 5.00 to 6.00 | 5.00 to 6.00 | C#CCCOc1ccc(CO[C@]2(C(=O)O)C[C@H](O)[C@@H](NC(=O)CO)[C@H]([C@H](O)[C@H](O)CNC(=O)C(OC)(c3ccccc3)C(F)(F)F)O2)cc1 (stereo partly drawn) [Compound 171, (2R,4S,5R,6R)-2-((4-(but-3-yn-1-yloxy)benzyl)oxy)-6-((1R,2R)-1,2-dihydroxy-3-(3,3,3-trifluoro-2-methoxy-2-phenylpropanamido)propyl)-4-hydroxy-5-(2-hydroxyacetamido)tetrahydro-2H-pyran-2-carboxylic acid]
4 | > 6.00 | > 6.00 | > 6.00 | CC(=O)NCCOCCOCCOCCOCCNc1c(NCCCCCCO[C@]2(C(=O)O)C[C@H](O)[C@@H](NC(=O)CO)[C@H]([C@H](O)[C@H](O)CNC(=O)Cc3ccc(-c4nnn[nH]4)cc3)O2)c(=O)c1=O [Cpd. 265, (2R,4S,5R,6R)-6-((1R,2R)-3-(2-(4-(1H-tetrazol-5-yl)phenyl)acetamido)-1,2-dihydroxypropyl)-2-((6-((3,4-dioxo-2-((2-oxo-6,9,12,15-tetraoxa-3-azaheptadecan-17-yl)amino)cyclobut-1-en-1-yl)amino)hexyl)oxy)-4-hydroxy-5-(2-hydroxyacetamido)tetrahydro-2H-pyran-2-carboxylic acid]
5 | > 6.00 | > 6.00 | 5.00 to 6.00 | C#CCOc1ccc(CO[C@]2(C(=O)O)C[C@H](O)[C@@H](NC(=O)CO)[C@H]([C@H](O)[C@H](O)CNC(=O)Cc3ccc(-c4ccc(O)cc4)cc3C)O2)cc1 [Compound 56, (2R,4S,5R,6R)-6-((1R,2R)-1,2-dihydroxy-3-(2-(4′-hydroxy-3-methyl-[1,1′-biphenyl]-4-yl)acetamido)propyl)-4-hydroxy-5-(2-hydroxyacetamido)-2-((4-(prop-2-yn-1-yloxy)benzyl)oxy)tetrahydro-2H-pyran-2-carboxylic acid]
6 | 5.00 to 6.00 | > 6.00 | 5.00 to 6.00 | C#CCOCCOCCO[C@]1(C(=O)O)C[C@H](O)[C@@H](NC(=O)C(F)F)[C@H]([C@H](O)[C@H](O)CNC(=O)Cc2ccc(-c3ccc(O)cc3)cc2)O1 [Compound 76, (2R,4S,5R,6R)-5-(2,2-difluoroacetamido)-6-((1R,2R)-1,2-dihydroxy-3-(2-(4′-hydroxy-[1,1′-biphenyl]-4-yl)acetamido)propyl)-4-hydroxy-2-(2-(2-(prop-2-yn-1-yloxy)ethoxy)ethoxy)tetrahydro-2H-pyran-2-carboxylic acid]
7 | < 5.00 | > 6.00 | > 6.00 | C#CCOCCOCCO[C@]1(C(=O)O)C[C@H](O)[C@@H](NC(=O)CO)[C@H]([C@H](O)[C@H](O)CNC(=O)Cc2cc(F)cc(C(F)(F)F)c2)O1 [Compound 133, (2R,4S,5R,6R)-6-((1R,2R)-3-(2-(3-fluoro-5-(trifluoromethyl)phenyl)acetamido)-1,2-dihydroxypropyl)-4-hydroxy-5-(2-hydroxyacetamido)-2-(2-(2-(prop-2-yn-1-yloxy)ethoxy)ethoxy)tetrahydro-2H-pyran-2-carboxylic acid]
8 | < 5.00 | < 5.00 | < 5.00 | C#CCOCCOCCO[C@]1(C(=O)O)C[C@H](O)[C@@H](NS(=O)(=O)NC)[C@H]([C@H](O)[C@H](O)CNC(=O)Cc2ccc(-c3ccc(O)cc3)cc2)O1 [Compound 225, (2R,4S,5R,6R)-6-((1R,2R)-1,2-dihydroxy-3-(2-(4′-hydroxy-[1,1′-biphenyl]-4-yl)acetamido)propyl)-4-hydroxy-5-((N-methylsulfamoyl)amino)-2-(2-(2-(prop-2-yn-1-yloxy)ethoxy)ethoxy)tetrahydro-2H-pyran-2-carboxylic acid]
9 | 5.00 to 6.00 | > 6.00 | > 6.00 | C#CCOCCCCCCC(O)[C@]1(C(=O)O)C[C@H](O)[C@@H](NC(=O)CO)[C@H]([C@H](O)[C@H](O)CNC(=O)Cc2ccc(Cl)cc2)O1 (stereo partly drawn) [Compound 103, (2S,4S,5R,6R)-6-((1R,2R)-3-(2-(4-chlorophenyl)acetamido)-1,2-dihydroxypropyl)-4-hydroxy-2-(1-hydroxy-7-(prop-2-yn-1-yloxy)heptyl)-5-(2-hydroxyacetamido)tetrahydro-2H-pyran-2-carboxylic acid]
10 | 5.00 to 6.00 | > 6.00 | > 6.00 | O=C(Cc1ccc(Cl)cc1)NC[C@@H](O)[C@@H](O)[C@@H]1O[C@@](OCC2CCOCC2)(C(=O)O)C[C@H](O)[C@H]1NC(=O)CO [Compound 106, (2R,4S,5R,6R)-6-((1R,2R)-3-(2-(4-chlorophenyl)acetamido)-1,2-dihydroxypropyl)-4-hydroxy-5-(2-hydroxyacetamido)-2-((tetrahydro-2H-pyran-4-yl)methoxy)tetrahydro-2H-pyran-2-carboxylic acid]
11 | 5.00 to 6.00 | > 6.00 | > 6.00 | CC(=O)NCCOCCOCCOCCOCCC(=O)NCCCCCO[C@]1(C(=O)O)C[C@H](O)[C@@H](NC(=O)CO)[C@H]([C@H](O)[C@H](O)CNC(=O)Cc2ccc(Cl)cc2)O1 [Cpd. 241, (2R,4S,5R,6R)-6-((1R,2R)-3-(2-(4-chlorophenyl)acetamido)-1,2-dihydroxypropyl)-2-((2,18-dioxo-6,9,12,15-tetraoxa-3,19-diazatetracosan-24-yl)oxy)-4-hydroxy-5-(2-hydroxyacetamido) tetrahydro-2H-pyran-2-carboxylic acid]
12 | 5.00 to 6.00 | 5.00 to 6.00 | 5.00 to 6.00 | CC(=O)NCCOCCOCCOCCOCCNC(=O)CCOCCO[C@]1(C(=O)O)C[C@H](O)[C@@H](NC(=O)CO)[C@H]([C@H](O)[C@H](O)CNC(=O)Cc2ccc(Cl)cc2)O1 [Compound 239, (2R,4S,5R,6R)-6-((1R,2R)-3-(2-(4-chlorophenyl)acetamido)-1,2-dihydroxypropyl)-2-((2,19-dioxo-6,9,12,15,22-pentaoxa-3,18-diazatetracosan-24-yl)oxy)-4-hydroxy-5-(2-hydroxyacetamido) tetrahydro-2H-pyran-2-carboxylic acid]
